# Measurements from ChEMBL document CHEMBL1201862, “PubChem BioAssay data set” (2004).
# Where a name gives a salt, the structure may show the parent alone.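 Cultured in 96-well plates, cells were exposed to test compound for 48 hours across five concentrations. GI50: concentration for 50% inhibition of growth.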 Calls of active or inactive are those of the source. No stated cut-off is given here; in the data, active = GI50 up to about 1.1 µM and inactive = higher.
# Assays:
# Assay in all cases: DTP human tumour cell line panel, 48 h
# [1] = test system: SW-620
# [2] = test system: SK-MEL-2
# [3] = test system: HOP-62
# [4] = test system: MOLT-4
# [5] = test system: MDA-N
# [6] = test system: TK-10
# [7] = test system: A498
# [8] = test system: NCI/ADR-RES
# [9] = test system: UACC-257
# [10] = test system: Malme-3M
# [11] = test system: HOP-92
# [12] = test system: MDA-MB-435
# [13] = test system: SF-295
# [14] = test system: LOX IMVI
# [15] = test system: UACC-62
# [16] = test system: RXF 393
# [17] = test system: KM12
# [18] = test system: 786-0
# [19] = test system: A549
# [20] = test system: HCC 2998
SMILES,GI50 [1],GI50 [2],GI50 [3],GI50 [4],GI50 [5],GI50 [6],GI50 [7],GI50 [8],GI50 [9],GI50 [10],GI50 [11],GI50 [12],GI50 [13],GI50 [14],GI50 [15],GI50 [16],GI50 [17],GI50 [18],GI50 [19],GI50 [20]
Cc1cc(C2(c3cc(C)c(O)c(C(=O)O)c3)OS(=O)(=O)c3ccccc32)cc(C(=O)O)c1O,> 100 µM (inactive),> 100 µM (inactive),> 100 µM (inactive),0.205 µM (active),> 100 µM (inactive),> 100 µM (inactive),> 100 µM (inactive),> 100 µM (inactive),> 100 µM (inactive),> 100 µM (inactive),> 100 µM (inactive),> 100 µM (inactive),> 100 µM (inactive),> 100 µM (inactive),> 100 µM (inactive),> 100 µM (inactive),> 100 µM (inactive),> 100 µM (inactive),> 100 µM (inactive),
CCN(CC)CCNc1ccc(C)c2sc3ccccc3c(=O)c12 [LUCANTHONE HYDROCHLORIDE],1.76 µM (inactive),3.83 µM (inactive),6.5 µM (inactive),1.27 µM (inactive),1.95 µM (inactive),3.72 µM (inactive),2.23 µM (inactive),4.3 µM (inactive),1.66 µM (inactive),3.84 µM (inactive),,2.04 µM (inactive),2.18 µM (inactive),1.49 µM (inactive),1.84 µM (inactive),1.98 µM (inactive),3.09 µM (inactive),3.02 µM (inactive),2.61 µM (inactive),3.64 µM (inactive)
CC(=O)/C=N/CC(=O)O,> 100 µM (inactive),> 100 µM (inactive),> 100 µM (inactive),> 100 µM (inactive),> 100 µM (inactive),> 100 µM (inactive),> 100 µM (inactive),> 100 µM (inactive),> 100 µM (inactive),> 100 µM (inactive),> 100 µM (inactive),> 100 µM (inactive),> 100 µM (inactive),> 100 µM (inactive),> 100 µM (inactive),> 100 µM (inactive),> 100 µM (inactive),> 100 µM (inactive),> 100 µM (inactive),
O=C1c2ccccc2-c2cc([N+](=O)[O-])c([N+](=O)[O-])cc21,1.58 µM (inactive),1.87 µM (inactive),1.58 µM (inactive),0.482 µM (active),2.35 µM (inactive),1.48 µM (inactive),17.2 µM (inactive),2.81 µM (inactive),1.41 µM (inactive),1.91 µM (inactive),1.72 µM (inactive),1.65 µM (inactive),1.65 µM (inactive),0.861 µM (active),1.66 µM (inactive),1.33 µM (inactive),1.61 µM (inactive),2.25 µM (inactive),2.43 µM (inactive),
O=C(O)/C=C/C(=O)O [FUMARIC ACID],> 100 µM (inactive),> 100 µM (inactive),> 100 µM (inactive),> 100 µM (inactive),> 100 µM (inactive),> 100 µM (inactive),,> 100 µM (inactive),> 100 µM (inactive),> 100 µM (inactive),> 100 µM (inactive),> 100 µM (inactive),> 100 µM (inactive),> 100 µM (inactive),,,> 100 µM (inactive),> 100 µM (inactive),> 100 µM (inactive),> 100 µM (inactive)
CC(=O)N1CC[N+](C)(CCCCN2c3ccccc3Sc3cc(N=[N+]=[N-])ccc32)CC1,> 100 µM (inactive),> 100 µM (inactive),> 100 µM (inactive),> 100 µM (inactive),> 100 µM (inactive),> 100 µM (inactive),> 100 µM (inactive),> 100 µM (inactive),> 100 µM (inactive),> 100 µM (inactive),,> 100 µM (inactive),> 100 µM (inactive),> 100 µM (inactive),> 100 µM (inactive),> 100 µM (inactive),> 100 µM (inactive),> 100 µM (inactive),> 100 µM (inactive),> 100 µM (inactive)
C=C1C(=O)OC2C1CC(OC(C)=O)/C(C)=C/CCC1(C)OC21 (stereo not given),> 100 µM (inactive),> 100 µM (inactive),,> 100 µM (inactive),> 100 µM (inactive),,,> 100 µM (inactive),> 100 µM (inactive),> 100 µM (inactive),> 100 µM (inactive),> 100 µM (inactive),> 100 µM (inactive),> 100 µM (inactive),> 100 µM (inactive),,> 100 µM (inactive),> 100 µM (inactive),> 100 µM (inactive),> 100 µM (inactive)
CSc1c(C#N)c(O)nc(N)c1C(=O)Nc1ccc(C)cc1,> 100 µM (inactive),> 100 µM (inactive),,> 100 µM (inactive),> 100 µM (inactive),> 100 µM (inactive),38.9 µM (inactive),> 100 µM (inactive),> 100 µM (inactive),> 100 µM (inactive),,> 100 µM (inactive),,> 100 µM (inactive),> 100 µM (inactive),> 100 µM (inactive),> 100 µM (inactive),> 100 µM (inactive),> 100 µM (inactive),> 100 µM (inactive)
O=C(/C=C\Nc1ccccc1O)C(F)(F)F,> 100 µM (inactive),69 µM (inactive),30.6 µM (inactive),31.7 µM (inactive),43 µM (inactive),> 100 µM (inactive),,> 100 µM (inactive),26.1 µM (inactive),26.5 µM (inactive),> 100 µM (inactive),60.1 µM (inactive),50 µM (inactive),95.3 µM (inactive),45.4 µM (inactive),> 100 µM (inactive),> 100 µM (inactive),35.1 µM (inactive),> 100 µM (inactive),> 100 µM (inactive)
CC1(CC2=C(C(=O)NCCO[Si](C)(C)C(C)(C)C)C3(OCCO3)C2=O)OCCO1,> 100 µM (inactive),> 100 µM (inactive),> 100 µM (inactive),61.1 µM (inactive),> 100 µM (inactive),> 100 µM (inactive),> 100 µM (inactive),> 100 µM (inactive),> 100 µM (inactive),20.4 µM (inactive),> 100 µM (inactive),> 100 µM (inactive),> 100 µM (inactive),57.5 µM (inactive),> 100 µM (inactive),,> 100 µM (inactive),> 100 µM (inactive),> 100 µM (inactive),
O=C(O)c1ccccc1/C=N/N=C1c2ccccc2-c2ccccc21,32.4 µM (inactive),44.1 µM (inactive),42.6 µM (inactive),22.5 µM (inactive),37.5 µM (inactive),74.8 µM (inactive),68.4 µM (inactive),52.8 µM (inactive),85.1 µM (inactive),23.3 µM (inactive),35.3 µM (inactive),29.9 µM (inactive),29.3 µM (inactive),37.7 µM (inactive),44.9 µM (inactive),29 µM (inactive),22.2 µM (inactive),29.6 µM (inactive),31.6 µM (inactive),
O=C1C=CC2CCC1C2 (stereo not given),32.1 µM (inactive),21.4 µM (inactive),43.1 µM (inactive),26.4 µM (inactive),25 µM (inactive),66.1 µM (inactive),90.2 µM (inactive),22.4 µM (inactive),46.8 µM (inactive),14.6 µM (inactive),,17.2 µM (inactive),44.2 µM (inactive),29.4 µM (inactive),19.2 µM (inactive),,32.4 µM (inactive),40.9 µM (inactive),40.6 µM (inactive),30.1 µM (inactive)
COc1ccc(OC)c(N2C(=O)CSC2c2cc(OC)c(OC)c(OC)c2)c1 (stereo not given),> 100 µM (inactive),> 100 µM (inactive),,> 100 µM (inactive),33.4 µM (inactive),> 100 µM (inactive),> 100 µM (inactive),> 100 µM (inactive),89.5 µM (inactive),> 100 µM (inactive),> 100 µM (inactive),29.8 µM (inactive),> 100 µM (inactive),> 100 µM (inactive),> 100 µM (inactive),,81.7 µM (inactive),> 100 µM (inactive),> 100 µM (inactive),> 100 µM (inactive)
CCN(CC)c1ccc2cc(C(N)=S)c(=N)oc2c1,> 100 µM (inactive),> 100 µM (inactive),> 100 µM (inactive),> 100 µM (inactive),> 100 µM (inactive),> 100 µM (inactive),,> 100 µM (inactive),> 100 µM (inactive),87.9 µM (inactive),> 100 µM (inactive),> 100 µM (inactive),> 100 µM (inactive),> 100 µM (inactive),> 100 µM (inactive),> 100 µM (inactive),> 100 µM (inactive),> 100 µM (inactive),> 100 µM (inactive),> 100 µM (inactive)
Cn1cc(C[C@@H](N)C(=O)O)c2ccccc21 [INDOXIMOD],> 100 µM (inactive),> 100 µM (inactive),> 100 µM (inactive),> 100 µM (inactive),> 100 µM (inactive),> 100 µM (inactive),> 100 µM (inactive),> 100 µM (inactive),> 100 µM (inactive),> 100 µM (inactive),,> 100 µM (inactive),> 100 µM (inactive),> 100 µM (inactive),> 100 µM (inactive),20 µM (inactive),> 100 µM (inactive),> 100 µM (inactive),> 100 µM (inactive),> 100 µM (inactive)
